Test results: patent publication US20260258425A1, “MALT1 TUMOR INHIBITOR, PHARMACEUTICAL COMPOSITION CONTAINING THE SAME, AND APPLICATIONS THEREOF” (XZYP (BEIJING) BIOTECH CO., LTD, priority 2023, published 2026)
“Also recorded” adds a separate entry of the source.

What was measured:
[1] = tested on: MALT1; assay: Western blot of MALT1 expression in E0771 cells after ASO transfection with Lipofectamine 3000; format: cell-based, mouse; settings: ASO final concentration 50 nM, 5 μL Lipofectamine 3000, 48 hours after transfection
Description: S1. Considering the specificity between the antisense nucleic acid and the target nucleic acid and the hairpin-like structure that may be formed by the base complementarity within the nucleotide sequence of the antisense nucleic acid, the nucleotide sequence of the antisense nucleic acid needs to target the amino acid residues at positions 81 and/or 82 of the death domain (DD) of MALT1; S2. Considering the stability of hybridization and the membrane permeability of the antisense oligonucleotide, select the length of the antisense oligonucleotide, which ranges from 15 to 40 bases; S3. Considering the affinity of the antisense oligonucleotide for the target sequence, since the affinity of GC base pairs is greater than that between AU, increasing the ratio of GC base pairs to AU base pairs in the antisense oligonucleotide can appropriately reduce the length of the antisense oligonucleotide; S4. Set a control, which can be missense or reverse; S5. Use the designed antisense oligonucleotides to inhibit the expression of the same target sequence MALT-1 mRNA, and screen the antisense oligonucleotide with the best inhibitory effect. The specific steps for screening the antisense oligonucleotide with the best inhibitory effect are as follows: • a. […] 2×10^5 E0771 cells into each well of a 12-well plate and incubate overnight; • b. On the day after operation a, transfect the corresponding ASO drug with 5 μL of Lipofectamine™ 3000 until its final concentration is 50 nM; • c. 6 hours after operation b, replace the serum-free medium with medium containing 10% serum; • d. 24 hours after operation c, replace the serum-free medium again; • e. 48 hours after operation d, harvest the obtained protein and perform Western blot experiment. The Western blot results of antisense oligonucleotides targeting E0771 cells after transfection with Lipofectamine™ 3000 are shown in FIG. 5: in this figure, 48 hours after transfection with Lipofectamine™ 3000, 5 μL of Lipofectamine™ 3000 was added to each well of the 12-well plate.

[2] = tested on: breast cancer cells (E0771); assay: Verification of ASO prodrug in breast cancer cells E0771 (FIG. 18); format: cell-based, mouse
[3] = tested on: E0771 cells; assay: E0771 orthotopic breast cancer model, intratumoral ASO, tumor volume; format: in vivo, mouse; settings: ASO 5 nmol intratumoral twice a week, mean, n=12
Description: (§1) Based on the intratumoral experimental data of various mouse breast cancer models and melanoma models (administration started 7 days later, once every 3 days), this example studies the effect comparison between the ASO prodrug (ASO24, whose sequence is shown in SEQ ID No. 2) and PD-1/PD-L1, as well as the effect of their combination.
(§2) 1×10^5 E0771 cells were orthotopically injected into the fat pad of wild-type mice. Starting from day 7, PD-1 antibody (BioXCell #BE0033, clone J43, the same below) monotherapy, ASO monotherapy, or combined PD-1 antibody and ASO therapy was initiated. For anti-PD-1 antibody monotherapy, intraperitoneal injection was performed once a week at a dose of 3 mg/kg starting 7 days after tumor transplantation, and the control group was injected with DPBS. For MALT1 ASO monotherapy, in vivo-jetPEI®, in vivo DNA transfection kit was used according to the instructions. Intratumoral injection was performed twice a week at a dose of 5 nmol starting 7 days after tumor transplantation, and the control group was injected with solvent or nontarget ASO. Combined therapy will receive the two specified monotherapies. Tumor measurement was started after administration, once every three days. n=12. Data are expressed as mean. Statistical analysis was performed using Two way ANOVA. ** represents p <0.01.

[4] = tested on: B16F10 cells; assay: B16F10 subcutaneous melanoma model, intratumoral ASO, tumor volume; format: in vivo, mouse; settings: mean, n=10
Description: as §1, §2
1×10^5 B16F10 cells were subcutaneously injected near the subcutaneous tissue of the groin of wild-type mice. Starting from day 7, PD-1 antibody monotherapy, ASO monotherapy, or combined PD-1 antibody and ASO therapy was initiated. n=10. Data are expressed as mean. Statistical analysis was performed using Two way ANOVA. ** represents p<0.01.

[5] = tested on: PyMT-A cells; assay: PyMT-A orthotopic breast cancer model, intratumoral ASO, tumor volume; format: in vivo, mouse; settings: mean, n=10
Description: as §1, §2
(§3) 1×10^5 PyMT-A cells were orthotopically injected into the fat pad of wild-type mice. Starting from day 7, PD-1 antibody monotherapy, ASO monotherapy, or combined PD-1 antibody and ASO therapy was initiated. n=10. Data are expressed as mean. Statistical analysis was performed using Two way ANOVA. n.s. represents no significant difference. ** represents p <0.01.

[6] = tested on: 4T1 cells; assay: 4T1 orthotopic breast cancer model, intratumoral ASO, tumor volume; format: in vivo, mouse; settings: mean, n=10
Description: as §1, §2
as §3, with “2×10^5 4T1” for “1×10^5 PyMT-A”

[7] = tested on: E0771 cells; assay: E0771 breast cancer model, systemic ASO24 (tail vein LNP-ASO), tumor volume; format: in vivo, mouse
Procedure: as §2
(§4) Study on the Effect Comparison between ASO Prodrug and PD-1/PD-L1 and Their Combined Use Based on Systemic Administration Experimental Data of Various Mouse Breast Cancer Models and Melanoma Models (Administration Started 7 Days Later, Once Every 3 Days).
(§5) The experimental process is similar to the intratumoral administration of ASO24 in E0771 cells, with the difference that ASO24 is administered via systemic delivery by tail vein injection of LNP-ASO in mice.

[8] = tested on: 4T1 cells; assay: 4T1 breast cancer model, systemic ASO24 (tail vein LNP-ASO), tumor volume; format: in vivo, mouse
Procedure: as §4, §5

[9] = tested on: ABC DLBCL cells; settings: background statement; cited from earlier work
[10] = tested on: germinal center B-cell (GCB) type DLBCL cells; settings: background statement; cells independent of BCR signaling; cited from earlier work
[11] = Day 7 (start of administration), ASO24 systemic by tail vein LNP-ASO
[12] = Day 9, ASO24 systemic by tail vein LNP-ASO, administration from day 7
[13] = Day 11, ASO24 systemic by tail vein LNP-ASO, administration from day 7
[14] = Day 13, ASO24 systemic by tail vein LNP-ASO, administration from day 7
[15] = Day 15, ASO24 systemic by tail vein LNP-ASO, administration from day 7
[16] = Day 17, ASO24 systemic by tail vein LNP-ASO, administration from day 7
[17] = Day 19, ASO24 systemic by tail vein LNP-ASO, administration from day 7

Substance: GAGGCAGTGCTTGGGAAGGTC (antisense GAGGCAGUGCUUGGGAAGGUC; listed as RNA, chemistry not given here) [ASO I]
- inhibition of MALT1 expression (Western blot band) [1]: good inhibitory results; also recorded: good inhibitory effects

Substance: CAAGAGCAGATTTATTTTGT (antisense CAAGAGCAGAUUUAUUUUGU; listed as RNA, chemistry not given here) [ASO K]
- inhibition of MALT1 expression (Western blot band) [1]: good inhibitory results; also recorded: good inhibitory effects

Substance: GAAGTTCATGAGCCTTGGCCC (antisense GAAGUUCAUGAGCCUUGGCCC; called an ASO prodrug, chemistry not given here) [ASO24]
- inhibition of MALT1 expression (Western blot band) ([1]; listed as D): obvious inhibitory results; also recorded: obvious inhibitory effects
- inhibition of further development of cancer cells [2]: significantly inhibit the further development of cancer cells
- Tumor volume ([3]; Day 0, E0771 orthotopic fat pad, wild-type mice, from day 7 anti-PD-1 3 mg/kg i.p. once a week): 0 mm^3
- Tumor volume ([3]; Day 7 (start of treatment), E0771 orthotopic, anti-PD-1 3 mg/kg i.p. once a week): 49 mm^3
- Tumor volume ([3]; Day 10, E0771 orthotopic, from day 7 anti-PD-1 3 mg/kg i.p. once a week): 36 mm^3
- Tumor volume ([3]; Day 13, E0771 orthotopic, from day 7 anti-PD-1 3 mg/kg i.p. once a week): 92 mm^3
- Tumor volume ([3]; Day 16, E0771 orthotopic, from day 7 anti-PD-1 3 mg/kg i.p. once a week): 140 mm^3
- Tumor volume ([3]; Day 19, E0771 orthotopic, from day 7 anti-PD-1 3 mg/kg i.p. once a week): 306 mm^3
- Tumor volume ([4]; Day 0, B16F10 subcutaneous near groin, wild-type mice, treatment from day 7, ASO intratumoral): 0 mm^3
- Tumor volume ([4]; Day 7 (start of treatment), B16F10 subcutaneous, ASO intratumoral): 49 mm^3
- Tumor volume ([4]; Day 10, B16F10 subcutaneous, treatment from day 7, ASO intratumoral): 26 mm^3
- Tumor volume ([4]; Day 13, B16F10 subcutaneous, treatment from day 7, ASO intratumoral): 129 mm^3
- Tumor volume ([4]; Day 16, B16F10 subcutaneous, treatment from day 7, ASO intratumoral): 311 mm^3
- Tumor volume ([5]; Day 0, PyMT-A orthotopic fat pad, wild-type mice, treatment from day 7, ASO intratumoral): 0 mm^3
- Tumor volume ([5]; Day 7 (start of treatment), PyMT-A orthotopic, ASO intratumoral): 13 mm^3
- Tumor volume ([5]; Day 10, PyMT-A orthotopic, treatment from day 7, ASO intratumoral): 41 mm^3
- Tumor volume ([5]; Day 13, PyMT-A orthotopic, treatment from day 7, ASO intratumoral): 142 mm^3
- Tumor volume ([5]; Day 16, PyMT-A orthotopic, treatment from day 7, ASO intratumoral): 245 mm^3
- Tumor volume ([5]; Day 19, PyMT-A orthotopic, treatment from day 7, ASO intratumoral): 578 mm^3
- Tumor volume ([6]; Day 0, 4T1 orthotopic fat pad, wild-type mice, treatment from day 7, ASO intratumoral): 0 mm^3
- Tumor volume ([6]; Day 7 (start of treatment), 4T1 orthotopic, ASO intratumoral): 66 mm^3
- Tumor volume ([6]; Day 10, 4T1 orthotopic, treatment from day 7, ASO intratumoral): 71 mm^3
- Tumor volume ([6]; Day 13, 4T1 orthotopic, treatment from day 7, ASO intratumoral): 205 mm^3
- Tumor volume ([6]; Day 16, 4T1 orthotopic, treatment from day 7, ASO intratumoral): 377 mm^3
- Tumor volume ([6]; Day 19, 4T1 orthotopic, treatment from day 7, ASO intratumoral): 876 mm^3
- Tumor volume ([7]; Day 0, ASO24 systemic by tail vein injection of LNP-ASO, administration from day 7): 0 mm^3
- Tumor volume [7, 11]: 29 mm^3
- Tumor volume [7, 12]: 51 mm^3
- Tumor volume [7, 13]: 57 mm^3
- Tumor volume [7, 14]: 86 mm^3
- Tumor volume [7, 15]: 195 mm^3
- Tumor volume [7, 16]: 225 mm^3
- Tumor volume [7, 17]: 313 mm^3
- Tumor volume ([8]; Day 0, ASO24 systemic by tail vein LNP-ASO, administration from day 7): 0 mm^3
- Tumor volume [8, 11]: 44 mm^3
- Tumor volume [8, 12]: 94 mm^3
- Tumor volume [8, 13]: 103 mm^3
- Tumor volume [8, 14]: 136 mm^3
- Tumor volume [8, 15]: 244 mm^3
- Tumor volume [8, 16]: 333 mm^3
- Tumor volume [8, 17]: 510 mm^3

Substance: TAGAGGCAGTGCTTGGGAAG (antisense UAGAGGCAGUGCUUGGGAAG; listed as RNA, chemistry not given here) [ASO H]
- inhibition of MALT1 expression (Western blot band) [1]: good inhibitory results; also recorded: good inhibitory effects

Substance: GGTTTGTGGACTATACTTGT (antisense GGUUUGUGGACUAUACUUGU; listed as RNA, chemistry not given here) [ASO25]
- inhibition of MALT1 expression (Western blot band) [1]: obvious inhibitory results; also recorded: obvious inhibitory effects

Substance: TTGTGGACTATACTTGTGTA (antisense UUGUGGACUAUACUUGUGUA; listed as RNA, chemistry not given here) [ASO G]
- inhibition of MALT1 expression (Western blot band) [1]: good inhibitory results; also recorded: good inhibitory effects

Substance: AGCCTTGGCCCACTGTAGATT (antisense AGCCUUGGCCCACUGUAGAUU; listed as RNA, chemistry not given here) [ASO A]
- inhibition of MALT1 expression (Western blot band) [1]: good inhibitory results; also recorded: good inhibitory effects

Substance: TCATGAGCCTTGGCCCACTG (antisense UCAUGAGCCUUGGCCCACUG; listed as RNA, chemistry not given here) [ASO B]
- inhibition of MALT1 expression (Western blot band) [1]: obvious inhibitory results; also recorded: obvious inhibitory effects

Substance: AAGTTCATGAGCCTTGGCCC (antisense AAGUUCAUGAGCCUUGGCCC; listed as RNA, chemistry not given here) [ASO C]
- inhibition of MALT1 expression (Western blot band) [1]: good inhibitory results; also recorded: good inhibitory effects

Substance: GTCCAGCCAACACTGCCTTG (antisense GUCCAGCCAACACUGCCUUG; listed as RNA, chemistry not given here) [ASO J]
- inhibition of MALT1 expression (Western blot band) [1]: good inhibitory results; also recorded: good inhibitory effects

Substance: zVRPR-FMK
- toxicity in ABC DLBCL cells [9]: induces toxicity
- sensitivity of GCB type DLBCL cells to the inhibitor [10]: insensitive
